Laboratory results reported in US8481546B2, “CGRP receptor antagonist” (Bristol-Myers Squibb Company, priority 2010, dated 2013).
Like-named read-outs stand apart in the source and are kept apart here.

Tests used:
[1] = test system: olfactory epithelium (nasal turbinates); format: in vivo, rats
From the text: Compound I and Compound II were also compared directly for intranasal irritation. […] The only endpoint evaluated in this study was histological evaluation of the nasal turbinates.

[2] = test system: olfactory epithelium (nasal tissues); assay: One-week comparative intranasal irritation study in rats (Compound I vs Compound III): nasal histology and tolerability; format: in vivo; conditions: 1 week
Description: This study was conducted to compare potential nasal irritation of Compound I to Compound III when given intranasally to male rats for 1 week. Male rats (10/group) were instilled intranasally with Compound I or Compound III solutions ([…] in 225 mM succinic acid, 0.02% benzalkonium chloride, 1.25% anhydrous dextrose, pH 5.8-6.2) once daily at a dose volume of 100 μL/nostril. Using this dosing paradigm, fixed doses of 5, 15 or 35 mg of test article were delivered daily. As a consequence, dosages normalized to body weight decreased with time as the rats grew. One control group was given succinate vehicle and a sham control group was given saline by intranasal instillation. Parameters evaluated included clinical observations, body weight, food consumption, toxicokinetics, and histological evaluation of nasal tissues.

[3] = 12.5 μL/nostril, 75 mg/ml, 1.875 mg/rat/day (0.134 mg/cm^2)
[4] = 12.5 μL/nostril, 175 mg/ml, 4.375 mg/rat/day (0.313 mg/cm^2)
[5] = 25 μL/nostril, 75 mg/ml, 3.75 mg/rat/day (0.268 mg/cm^2)
[6] = 25 μL/nostril, 175 mg/ml, 8.75 mg/rat/day (0.625 mg/cm^2)
[7] = 100 μL/nostril, 75 mg/ml, 15 mg/rat/day (1.071 mg/cm^2)
[8] = 100 μL/nostril, 175 mg/ml, 35 mg/rat/day (2.500 mg/cm^2)
[9] = nasal instillation 5 mg (0.357 mg/cm^2) once daily
[10] = nasal instillation 15 mg (1.07 mg/cm^2) once daily
[11] = nasal instillation 35 mg (2.50 mg/cm^2) once daily

Compound: Cc1cc(C[C@@H](NC(=O)N2CCC(C3Cc4cccc(F)c4NC3=O)CC2)C(=O)N2CCC(N3CCCCC3)CC2)cc2cn[nH]c12 (stereo partly shown) [Compound II]
- Olfactory epithelial toxicity, number of animals with severity Mild [1, 3]: 1
- Olfactory epithelial toxicity, number of animals with severity None [1, 3]: 3
- Olfactory epithelial toxicity, number of animals with severity Slight [1, 3]: 1
- Olfactory epithelial toxicity, number of animals with severity Mild [1, 4]: 1
- Olfactory epithelial toxicity, number of animals with severity Minimal [1, 4]: 1
- Olfactory epithelial toxicity, number of animals with severity None [1, 4]: 3
- Olfactory epithelial toxicity, number of animals with severity Minimal [1, 5]: 2
- Olfactory epithelial toxicity, number of animals with severity None [1, 5]: 2
- Olfactory epithelial toxicity, number of animals with severity Slight [1, 5]: 1
- Olfactory epithelial toxicity, number of animals with severity Minimal [1, 6]: 3
- Olfactory epithelial toxicity, number of animals with severity None [1, 6]: 1
- Olfactory epithelial toxicity, number of animals with severity Slight [1, 6]: 1
- Olfactory epithelial toxicity, number of animals with severity Mild [1, 7]: 1
- Olfactory epithelial toxicity, number of animals with severity Slight [1, 7]: 4
- Olfactory epithelial toxicity, number of animals with severity Mild [1, 8]: 2
- Olfactory epithelial toxicity, number of animals with severity Moderate [1, 8]: 3

Compound: Cc1cc(C[C@@H](NC(=O)N2CCC(c3cc4ccccc4[nH]c3=O)CC2)C(=O)N2CCC(N3CCCCC3)CC2)cc2cn[nH]c12 [Compound III, reference compound]
- Olfactory Epithelial Atrophy, incidence of severity Marked (number of rats) [2, 9]: 0
- Olfactory Epithelial Atrophy, incidence of severity Mild (number of rats) [2, 9]: 2
- Olfactory Epithelial Atrophy, incidence of severity Minimal (number of rats) [2, 9]: 6
- Olfactory Epithelial Atrophy, incidence of severity Moderate (number of rats) [2, 9]: 0
- Olfactory Epithelial Atrophy, incidence of severity None (number of rats) [2, 9]: 1
- Olfactory Epithelial Atrophy, incidence of severity Marked (number of rats) [2, 10]: 0
- Olfactory Epithelial Atrophy, incidence of severity Mild (number of rats) [2, 10]: 2
- Olfactory Epithelial Atrophy, incidence of severity Minimal (number of rats) [2, 10]: 0
- Olfactory Epithelial Atrophy, incidence of severity Moderate (number of rats) [2, 10]: 6
- Olfactory Epithelial Atrophy, incidence of severity None (number of rats) [2, 10]: 1
- Olfactory Epithelial Atrophy, incidence of severity Marked (number of rats) [2, 11]: 1
- Olfactory Epithelial Atrophy, incidence of severity Mild (number of rats) [2, 11]: 2
- Olfactory Epithelial Atrophy, incidence of severity Minimal (number of rats) [2, 11]: 0
- Olfactory Epithelial Atrophy, incidence of severity Moderate (number of rats) [2, 11]: 3
- Olfactory Epithelial Atrophy, incidence of severity None (number of rats) [2, 11]: 3
